Laboratory results from patent US20150232457A1, “CRYSTALLINE FORMS OF AFATINIB DI-MALEATE” (RATIOPHARM GMBH, priority 2011, published 2015).
Where “and” joins values, the source holds several entries; their conditions need not be identical. Equal values may be shown once. Read-outs that look alike come from different tables or passages of the source.

What was measured:
[1] = Stability and hygroscopicity at 40° C./75% relative humidity; assay type: physicochemical
Text: The term “non-hygroscopic” as used herein, and unless stated otherwise, refers to crystalline Afatinib di-maleate uptaking/absorbing less than 0.2% (w/w) of atmospheric water to the crystalline Afatinib di-maleate in the below specified conditions, as measured by Karl-Fischer (KF) titration or by monitoring the weight increase during dynamic vapour sorption (DVS) test.

[2] = Investigation of hygroscopicity (dynamic vapour sorption) with Karl-Fischer titration of the product; assay type: physicochemical
Method: Karl-Fischer titration was carried out using […] from Merck (HX908240). The instructions of the manual were followed and each sample was analyzed in triplicate. […] Investigation of Hygroscopicity (Dynamic Vapour Sorption (DVS)) Instrument: SPSx-1μ, (Projekt Messtechnik) Temperature: 25° C. Humidity cycles: [table] […] Then the sample was analyzed by XRD diffraction.

[3] = Chemical stability at 30° C./65% relative humidity for 4 weeks (HPLC); assay type: physicochemical; conditions: stable means purity change less than about 1% by HPLC, solid state form maintained
[4] = crystalline form of US 2005/0085495 (WO2005/037824); cited from earlier work

For `CN(C)C/C=C/C(=O)Nc1cc2c(Nc3ccc(F)c(Cl)c3)ncnc2cc1O[C@H]1CCOC1` [Form E, (E)-4-Dimethylamino-but-2-enoic acid {4-(3-chloro-4-fluoro-phenylamino)-7-[(S)-(tetrahydro-furan-3-yl)oxy]-quinazolin-6-yl}-amide], the hygroscopicity [1] was “not hygroscopic”, the polymorphic stability ([1]; stable means less than 1% converts to any other solid state form) was “polymorphically stable” and the “water content (% by weight), average” value ([2]; Karl-Fischer titration, average of triplicate, after DVS of Form A at 25° C.) was 7.00 % by weight. The “water content (% by weight)” value ([2]; Karl-Fischer titration, single determinations of a triplicate, after DVS humidity cycles of Form A at 25° C., 0-95% relative humidity, listed as Afatinib di-maleate after DVS of Form A) was 6.95 % by weight and 7.15 % by weight and 6.90 % by weight and the “decomposition after DVS” value ([2]; obtained product analysed by 1H-NMR and HPLC) was “no decomposition”.
For `CN(C)C/C=C/C(=O)Nc1cc2c(Nc3ccc(F)c(Cl)c3)ncnc2cc1O[C@H]1CCOC1` [Form C, (E)-4-Dimethylamino-but-2-enoic acid {4-(3-chloro-4-fluoro-phenylamino)-7-[(S)-(tetrahydro-furan-3-yl)oxy]-quinazolin-6-yl}-amide], the chemical stability [3] was “chemically stable”.
For `CN(C)C/C=C/C(=O)Nc1cc2c(Nc3ccc(F)c(Cl)c3)ncnc2cc1O[C@H]1CCOC1` [Afatinib di-maleate, (E)-4-Dimethylamino-but-2-enoic acid {4-(3-chloro-4-fluoro-phenylamino)-7-[(S)-(tetrahydro-furan-3-yl)oxy]-quinazolin-6-yl}-amide], the hygroscopicity [4] is listed as “limited hygroscopisity” and the polymorphic stability [4] is listed as “polymorphically stable”.
